# Laboratory results reported in paper PMC8847371 (Nature Communications, 2022).
# Several values for one entry are separate records, joined by “and”; a condition that tells them apart may be missing. Equal values may be shown once.
# Tested on: SARS-CoV-2 B.1.1.7 (alpha variant)
# Format: cell-based
# Settings: 3 µM
structure (smiles),measurement,value
N#C[C@@]1(c2ccc3c(N)ncnn23)O[C@H](CO)[C@@H](O)[C@H]1O [GS-441524],Log vRNA,4 and 4.2 and 4.3
